Read-outs that look alike come from different tables or passages of the source.
Assays:
Human CDK1/B [1] = biological target: T1, Human CDK1/B (Homo sapiens, UniProt P06493)
Protocol: (§1) Human CDK1/B was purchased from New England Biolabs or prepared as described,[46] CDK2/A2 was prepared as described,[46] CDK4/D was provided by AstraZeneca, and CDK7/H and CDK9/T were purchased from Upstate. IC50 values for CDK1/B, CDK2/A, and CDK4/D were determined as described.[23] IC50 values for CDK7/H and CDK9/H were determined according to the supplier’s instructions (Upstate).

CDK7/H [2] = biological target: T2, CDK7/H (Homo sapiens, UniProt P50613)
Protocol: as §1

CDK9/T [3] = biological target: T3, CDK9/T (Homo sapiens, UniProt P50750)
Protocol: as §1

CDK2/A [4] = biological target: T4, CDK2/A (Homo sapiens, UniProt P24941)
Protocol: as §1

CDK2/A [5] = biological target: T4, CDK2/A; assay: biochemical
Protocol: as §1

CDK4/D = CDK4/D (Homo sapiens, UniProt P11802); assay: biochemical; details: for inhibition at 100 µM: read-out: CDK4/D % inhibition at 100 μM; for inhibition at 10 µM: read-out: CDK4 Inhibition at 10 μM (%)
Protocol: as §1

[6] = system: Rb-proficient human tumor cell lines (A375, Calu-6, MDA-MB-231, SJSA1, SKUT-1B); assay: 5-day growth inhibition SRB assay; details: for GI50: Homo sapiens, 120 h
Protocol: Dose–response curves and GI50 bar charts represent the mean ± SEM from three or four independent experiments.
The ability of selected compounds to inhibit cell growth was assessed in a panel of human cancer cell lines using an SRB assay.[45] […] At least three independent experiments were performed. Growth inhibitory GI50 values were calculated using GraphPad Prism software (GraphPad Software, Inc., San Diego, CA).

CDK7/H [7] = biological target: T2, CDK7/H; assay: biochemical; details: for inhibition at 10 µM: read-out: CDK7 Inhibition at 10 μM (%)
Protocol: as §1

CDK5 [8] = biological target: T5, CDK5 (Homo sapiens, UniProt Q00535); assay: biochemical; details: read-out: CDK5 Inhibition at 10 μM (%)
CDK9/T [9] = biological target: T3, CDK9/T; assay: biochemical; details: read-out: CDK9 Inhibition at 10 μM (%)
Protocol: as §1

Human CDK1/B [10] = biological target: T1, Human CDK1/B; assay: biochemical; details: read-out: CDK1 Inhibition at 10 μM (%)
Protocol: as §1

CDK5 [11] = biological target: T5, CDK5; details: read-out: CDK5 Inhibitory Activity IC50; Table 3
[12] = read-out: CDK1/B IC50, Table 2, ATP 12.5 μM
[13] = read-out: CDK7/H IC50, Table 2, ATP 100 μM
[14] = read-out: CDK9/T IC50, Table 2, ATP 100 μM
[15] = read-out: CDK2 Inhibition IC50, Table 1, ATP 12.5 μM
[16] = read-out: CDK2 Inhibitory Activity IC50, Table 3
[17] = read-out: CDK1 Inhibitory Activity IC50, Table 3
[18] = read-out: CDK7 Inhibitory Activity IC50, Table 3
[19] = read-out: CDK9 Inhibitory Activity IC50, Table 3
[20] = read-out: CDK2 Inhibition at 10 μM (%)

T5 sequence (Q00535 whole entry, species assumed): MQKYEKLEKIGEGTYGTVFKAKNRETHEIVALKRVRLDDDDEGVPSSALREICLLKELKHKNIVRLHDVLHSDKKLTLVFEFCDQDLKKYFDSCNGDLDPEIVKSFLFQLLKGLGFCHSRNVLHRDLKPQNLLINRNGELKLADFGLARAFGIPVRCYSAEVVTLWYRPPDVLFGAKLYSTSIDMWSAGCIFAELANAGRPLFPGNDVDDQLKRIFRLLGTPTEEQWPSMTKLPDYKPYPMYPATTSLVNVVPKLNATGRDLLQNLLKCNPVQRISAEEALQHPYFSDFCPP
T5 sequence (Q15078 99-307 partner limits assumed, species assumed): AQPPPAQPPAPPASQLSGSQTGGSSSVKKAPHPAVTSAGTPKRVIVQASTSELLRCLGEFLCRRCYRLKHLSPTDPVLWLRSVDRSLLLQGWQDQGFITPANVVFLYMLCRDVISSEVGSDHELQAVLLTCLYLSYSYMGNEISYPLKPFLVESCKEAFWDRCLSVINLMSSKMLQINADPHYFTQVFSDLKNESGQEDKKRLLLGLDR
T2 sequence (P50613 whole entry): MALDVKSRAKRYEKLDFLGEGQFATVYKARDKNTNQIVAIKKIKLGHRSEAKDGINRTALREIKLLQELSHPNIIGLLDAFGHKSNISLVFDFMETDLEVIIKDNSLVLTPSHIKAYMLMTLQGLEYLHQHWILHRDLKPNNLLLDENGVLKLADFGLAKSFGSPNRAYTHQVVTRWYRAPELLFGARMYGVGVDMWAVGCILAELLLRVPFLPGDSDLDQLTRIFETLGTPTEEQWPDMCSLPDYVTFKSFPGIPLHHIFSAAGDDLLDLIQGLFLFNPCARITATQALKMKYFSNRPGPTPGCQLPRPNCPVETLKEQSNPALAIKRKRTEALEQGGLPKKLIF
T2 sequence (P51946 whole entry partner): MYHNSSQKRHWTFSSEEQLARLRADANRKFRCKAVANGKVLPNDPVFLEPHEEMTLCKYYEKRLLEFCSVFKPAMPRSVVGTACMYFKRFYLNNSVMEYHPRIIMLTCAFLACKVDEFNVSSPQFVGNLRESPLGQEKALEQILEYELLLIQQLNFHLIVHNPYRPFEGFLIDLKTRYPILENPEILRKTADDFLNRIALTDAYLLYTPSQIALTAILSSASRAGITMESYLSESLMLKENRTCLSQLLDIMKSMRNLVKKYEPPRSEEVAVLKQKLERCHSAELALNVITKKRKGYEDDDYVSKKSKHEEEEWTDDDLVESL
T2 sequence (P51948 whole entry partner): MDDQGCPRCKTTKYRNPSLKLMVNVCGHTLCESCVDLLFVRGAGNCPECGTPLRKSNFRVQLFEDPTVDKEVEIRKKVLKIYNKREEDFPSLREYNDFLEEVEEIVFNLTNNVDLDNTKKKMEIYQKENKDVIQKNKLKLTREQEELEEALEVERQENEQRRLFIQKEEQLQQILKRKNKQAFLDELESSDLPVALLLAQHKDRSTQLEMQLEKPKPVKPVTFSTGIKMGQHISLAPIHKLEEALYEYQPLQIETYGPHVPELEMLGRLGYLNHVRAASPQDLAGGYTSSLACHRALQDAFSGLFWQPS
Sequence of CDK4/D (P11802 whole entry): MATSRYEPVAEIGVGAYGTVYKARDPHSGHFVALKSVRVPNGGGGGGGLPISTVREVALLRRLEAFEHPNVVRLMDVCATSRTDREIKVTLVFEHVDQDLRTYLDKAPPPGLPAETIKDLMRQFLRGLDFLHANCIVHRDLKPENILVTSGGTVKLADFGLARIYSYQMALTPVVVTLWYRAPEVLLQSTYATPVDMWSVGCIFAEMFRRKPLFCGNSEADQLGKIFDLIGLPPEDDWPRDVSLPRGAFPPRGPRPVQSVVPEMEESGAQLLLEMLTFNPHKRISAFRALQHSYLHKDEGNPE
Sequence of CDK4/D (P24385 whole entry partner): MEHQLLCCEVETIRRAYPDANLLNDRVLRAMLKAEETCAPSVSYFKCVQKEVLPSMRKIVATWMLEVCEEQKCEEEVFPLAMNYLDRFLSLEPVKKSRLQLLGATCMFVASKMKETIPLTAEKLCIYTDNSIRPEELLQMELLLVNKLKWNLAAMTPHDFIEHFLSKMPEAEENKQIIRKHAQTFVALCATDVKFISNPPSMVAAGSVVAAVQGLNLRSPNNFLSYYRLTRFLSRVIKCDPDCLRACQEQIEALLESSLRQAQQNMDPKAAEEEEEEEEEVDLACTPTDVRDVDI
T3 sequence (P50750 whole entry): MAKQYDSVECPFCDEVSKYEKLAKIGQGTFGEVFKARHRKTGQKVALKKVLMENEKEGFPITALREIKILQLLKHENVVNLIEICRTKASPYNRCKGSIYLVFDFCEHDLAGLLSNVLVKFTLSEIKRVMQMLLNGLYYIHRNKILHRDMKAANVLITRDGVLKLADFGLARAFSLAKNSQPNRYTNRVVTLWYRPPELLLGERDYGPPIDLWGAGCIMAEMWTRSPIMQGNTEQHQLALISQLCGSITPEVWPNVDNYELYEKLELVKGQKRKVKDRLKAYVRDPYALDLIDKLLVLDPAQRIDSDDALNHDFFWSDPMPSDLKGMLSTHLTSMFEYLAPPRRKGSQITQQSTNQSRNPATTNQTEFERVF
T3 sequence (O60563 whole entry partner): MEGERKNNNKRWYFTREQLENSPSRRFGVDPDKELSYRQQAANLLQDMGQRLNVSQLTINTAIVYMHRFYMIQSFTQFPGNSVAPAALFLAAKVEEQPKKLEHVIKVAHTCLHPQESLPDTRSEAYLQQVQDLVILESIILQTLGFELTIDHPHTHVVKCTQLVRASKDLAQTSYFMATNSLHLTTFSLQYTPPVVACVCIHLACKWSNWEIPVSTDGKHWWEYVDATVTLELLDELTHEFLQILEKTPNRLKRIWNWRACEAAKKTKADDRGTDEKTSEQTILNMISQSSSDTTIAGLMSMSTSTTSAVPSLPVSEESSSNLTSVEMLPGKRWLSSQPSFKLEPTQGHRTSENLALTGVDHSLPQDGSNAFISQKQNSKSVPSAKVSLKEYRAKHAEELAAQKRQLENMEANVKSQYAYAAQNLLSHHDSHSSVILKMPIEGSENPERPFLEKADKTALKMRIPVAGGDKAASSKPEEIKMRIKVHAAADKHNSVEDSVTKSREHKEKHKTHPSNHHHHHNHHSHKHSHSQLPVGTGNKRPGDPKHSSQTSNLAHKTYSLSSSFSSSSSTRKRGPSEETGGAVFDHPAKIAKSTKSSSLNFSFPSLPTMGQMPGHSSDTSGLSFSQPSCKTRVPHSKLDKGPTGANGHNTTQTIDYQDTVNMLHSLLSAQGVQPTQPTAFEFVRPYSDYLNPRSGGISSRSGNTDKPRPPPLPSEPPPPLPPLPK
T1 sequence (P06493 whole entry): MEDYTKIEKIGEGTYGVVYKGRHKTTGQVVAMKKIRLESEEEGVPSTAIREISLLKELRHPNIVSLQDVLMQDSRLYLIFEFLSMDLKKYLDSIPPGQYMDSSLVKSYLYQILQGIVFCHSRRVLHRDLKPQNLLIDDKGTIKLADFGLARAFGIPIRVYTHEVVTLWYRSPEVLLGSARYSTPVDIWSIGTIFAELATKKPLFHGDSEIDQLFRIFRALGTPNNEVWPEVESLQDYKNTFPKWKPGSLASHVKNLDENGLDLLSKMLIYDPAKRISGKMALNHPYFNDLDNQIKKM
T1 sequence (P14635 whole entry partner): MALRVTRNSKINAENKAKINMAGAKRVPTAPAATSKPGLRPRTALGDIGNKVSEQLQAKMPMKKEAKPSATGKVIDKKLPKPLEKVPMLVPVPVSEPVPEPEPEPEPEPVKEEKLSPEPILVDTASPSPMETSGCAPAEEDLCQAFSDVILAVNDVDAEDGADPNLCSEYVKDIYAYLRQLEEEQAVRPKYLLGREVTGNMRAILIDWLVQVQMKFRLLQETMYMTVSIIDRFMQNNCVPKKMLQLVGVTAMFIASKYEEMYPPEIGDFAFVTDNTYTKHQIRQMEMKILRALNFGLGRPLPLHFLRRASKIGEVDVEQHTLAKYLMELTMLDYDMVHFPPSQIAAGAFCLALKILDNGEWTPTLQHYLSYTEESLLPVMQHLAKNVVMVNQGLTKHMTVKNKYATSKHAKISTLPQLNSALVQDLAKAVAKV

Work on `CCC(C)Oc1nc(Nc2ccc(S(N)(=O)=O)cc2)nc2[nH]cnc12` (racemic) [Compound 34] yielded an IC50 (Human CDK1/B [1]; [12]) of 97 ± 40 nM, an IC50 (CDK7/H [2]; [13]) of 2.8 ± 0.1 µM and an IC50 (CDK9/T [3]; [14]) of 570 ± 50 nM. The IC50 (CDK2/A [4]; read-out: CDK2/A IC50, Table 2, ATP 12.5 μM) was 1.2 ± 0.5 nM and the IC50 (CDK2/A [4]; [15]) was 1 ± 0.5 nM.
Compound `Nc1nc2ncnc-2c[nH]1` [Compound 8, 2-Aminopurine, reference compound] has an inhibition at 100 µM (CDK2/A [5]; read-out: CDK2 Inhibition (%) at 100 μM) of 4%.
Compound `c1ccc(Nc2ncc3nc[nH]c3n2)cc1` [Compound 12, Phenyl-(9H-purin-2-yl)amine] has an IC50 (CDK2/A [4]; [15]) of 61000 ± 100 nM.
In the case of `NS(=O)(=O)c1ccc(Nc2ncc3nc[nH]c3n2)cc1` [Compound 13, 4-(9H-Purin-2-ylamino)benzenesulfonamide], the IC50 (Human CDK1/B [1]; [12]) is reported as 15800 ± 1200 nM, the IC50 (CDK7/H [2]; [13]) is reported as 75 ± 3 µM and the IC50 (CDK9/T [3]; [14]) is reported as 38000 ± 11000 nM. For the same compound, the “fold less active/potent than 3 against CDK2” value (CDK2/A [4]; compared with 3) was roughly 300 fold, the IC50 (CDK2/A [4]; [15]) was 1500 ± 100 nM and the inhibition at 100 µM (CDK4/D) was 12%.
For `CC(C)[Si](C#Cc1nc(Nc2ccc(S(N)(=O)=O)cc2)nc2[nH]cnc12)(C(C)C)C(C)C` [Compound 40, 4-(6-((Triisopropylsilyl)ethynyl)-9H-purin-2-ylamino)benzenesulfonamide], the IC50 (CDK2/A [4]; [15]) was 17 ± 1 nM.
With `CC#Cc1nc(Nc2ccccc2)nc2[nH]cnc12` [Compound 48, N-Phenyl-6-(prop-1-yn-1-yl)-9H-purin-2-amine] the IC50 (CDK2/A [4]; [15]) was 6400 ± 400 nM.
Compound `C(#Cc1nc(Nc2ccccc2)nc2[nH]cnc12)c1ccccc1` [Compound 49, N-Phenyl-6-(phenylethynyl)-9H-purin-2-amine] has an IC50 (CDK2/A [4]; [15]) of 8900 ± 700 nM.
With `CCc1nc(Nc2ccc(S(N)(=O)=O)cc2)nc2[nH]cnc12` [Compound 52, 4-(6-Ethyl-9H-purin-2-ylamino)benzenesulfonamide] the “fold reduction of CDK2-inhibitory activity compared with 30” value (CDK2/A [4]; compared with 6-ethoxypurine 30) was roughly 10 fold and the IC50 (CDK2/A [4]; [15]) was 220 ± 3 nM.
`NS(=O)(=O)c1ccc(Nc2nc(C3CC3)c3nc[nH]c3n2)cc1` [Compound 55, 4-(6-Cyclopropyl-9H-purin-2-ylamino)benzenesulfonamide] was tested, and the IC50 (CDK2/A [4]; [15]) was 19 ± 1 nM.
`NS(=O)(=O)c1ccc(Nc2nc(-c3ccccc3)c3nc[nH]c3n2)cc1` [Compound 70, 4-(6-Phenyl-9H-purin-2-ylamino)benzenesulfonamide] gave an IC50 (Human CDK1/B [1]; [12]) of 730 ± 3 nM, an IC50 (CDK7/H [2]; [13]) of 6.8 ± 0.4 µM and an IC50 (CDK9/T [3]; [14]) of 570 ± 40 nM. It also gave an IC50 (CDK2/A [4]; [15]) of 24 ± 2 nM.
`COc1cccc(-c2nc(Nc3ccc(S(N)(=O)=O)cc3)nc3[nH]cnc23)c1` [Compound 71, 4-(6-(3-Methoxyphenyl)-9H-purin-2-ylamino)benzenesulfonamide] gave an IC50 (CDK2/A [4]; [15]) of 39 ± 13 nM.
Work on `COc1ccc(-c2nc(Nc3ccc(S(N)(=O)=O)cc3)nc3[nH]cnc23)cc1` [Compound 72, 4-(6-(4-Methoxyphenyl)-9H-purin-2-ylamino)benzenesulfonamide] yielded an IC50 (CDK2/A [4]; [15]) of 52 ± 4 nM.
In the case of `NS(=O)(=O)c1ccc(Nc2nc(-c3cccc(-c4ccccc4)c3)c3nc[nH]c3n2)cc1` [Compound 73, 4-((6-([1,1′-Biphenyl]-3-yl)-9H-purin-2-yl)amino)benzenesulfonamide], the IC50 (Human CDK1/B [1]; [12]) is reported as 86000 ± 4000 nM, the IC50 (CDK9/T [3]; [14]) is reported as 25000 ± 8000 nM and the “effect on the growth of cells” value ([6]; maximal concentration tested 30 μM, 5-day growth assay, GI50 could not be determined) is reported as “no or limited effects”. For the same compound, the “selectivity for CDK2 over CDK1” value (CDK2/A [4]; ratio of CDK1 and CDK2 IC50) was roughly 2000 fold, the IC50 (CDK2/A [4]; [15]) was 44 ± 12 nM and the inhibition at 100 µM (CDK7/H [7]; read-out: CDK7/H % inhibition at 100 μM) was 28%. It also gave an inhibition at 100 µM (CDK4/D) of 26%.
With `NS(=O)(=O)c1ccc(Nc2nc(-c3ccc4c(c3)OCO4)c3nc[nH]c3n2)cc1` [Compound 74, 4-(6-(Benzo[d][1,3]dioxol-5-yl)-9H-purin-2-ylamino)benzenesulfonamide] the “fold less potent than 70 (CDK2)” value (CDK2/A [4]; compared with 70) was roughly 20 fold and the IC50 (CDK2/A [4]; [15]) was 580 ± 20 nM.
In the case of `NS(=O)(=O)c1ccc(Nc2nc(-c3cccc4c3oc3ccccc34)c3nc[nH]c3n2)cc1` [Compound 75, 4-(6-(4-Dibenzofuryl)-9H-purin-2-ylamino)benzenesulfonamide], the IC50 (CDK2/A [4]; [15]) is reported as 1400 ± 200 nM.
`NS(=O)(=O)c1ccc(Nc2nc(-c3cccc4c3Sc3ccccc3S4)c3nc[nH]c3n2)cc1` [Compound 76] showed an IC50 (CDK2/A [4]; [15]) of 6700 ± 500 nM.
Compound `Nc1cc(OCC2CCCCC2)c2nc[nH]c2n1` [Compound 80, 7-(Cyclohexylmethoxy)-3H-imidazo[4,5-b]pyridin-5-amine] has an IC50 (CDK2/A [4]; [16]) of 28400 ± 800 nM.
`NS(=O)(=O)c1ccc(Nc2cc(OCC3CCCCC3)c3nc[nH]c3n2)cc1` [Compound 83, 4-((7-(Cyclohexylmethoxy)-3H-imidazo[4,5-b]pyridin-5-yl)amino) benzenesulfonamide] showed an IC50 (Human CDK1/B [1]; [17]) of 11000 ± 2000 nM, an inhibition at 10 µM (CDK5 [8]) of 37% and an inhibition at 10 µM (CDK9/T [9]) of 42%. The IC50 (CDK2/A [4]; [16]) was 290 ± 10 nM, the inhibition at 10 µM (CDK7/H [7]) was 37% and the inhibition at 10 µM (CDK4/D) was 23 ± 1%.
Work on `Nc1nc(OCC2CCCCC2)c2nn[nH]c2n1` [Compound 86, 7-(Cyclohexylmethoxy)-3H-[1,2,3]triazolo[4,5-d]pyrimidin-5-amine] yielded an inhibition at 10 µM (CDK5 [8]) of 13%, an inhibition at 10 µM (Human CDK1/B [10]) of 21% and an inhibition at 10 µM (CDK9/T [9]) of 16%. It also gave an IC50 (CDK2/A [4]; [16]) of 18000 ± 1000 nM, an inhibition at 10 µM (CDK7/H [7]) of 13% and an inhibition at 10 µM (CDK4/D) of 6.2%.
With `Nc1nc(OCC2CCCCC2)c2cn[nH]c2n1` [Compound 87, 4-(Cyclohexylmethoxy)-1H-pyrazolo[3,4-d]pyrimidin-6-amine] the inhibition at 10 µM (CDK5 [8]) was 14%, the inhibition at 10 µM (Human CDK1/B [10]) was 32% and the inhibition at 10 µM (CDK9/T [9]) was 16%. For the same compound, the IC50 (CDK2/A [4]; [16]) was 16000 ± 4000 nM, the inhibition at 10 µM (CDK7/H [7]) was 16% and the inhibition at 10 µM (CDK4/D) was 0%.
`NS(=O)(=O)c1ccc(Nc2nc(OCC3CCCCC3)c3nn[nH]c3n2)cc1` [Compound 90, 4-((7-(Cyclohexylmethoxy)-3H-[1,2,3]triazolo[4,5-d]pyrimidin-5-yl)amino) benzenesulfonamide] gave an IC50 (Human CDK1/B [1]; [17]) of 750 ± 60 nM, an IC50 (CDK7/H [2]; [18]) of 6.8 ± 0.7 µM and an IC50 (CDK9/T [3]; [19]) of 750 ± 30 nM. The IC50 (CDK5 [11]) was 3.3 ± 0.2 µM and the IC50 (CDK2/A [4]; [16]) was 2 ± 0.1 nM.
In the case of `NS(=O)(=O)c1ccc(Nc2nc(OCC3CCCCC3)c3cn[nH]c3n2)cc1` [Compound 91, 4-((4-(Cyclohexylmethoxy)-1H-pyrazolo[3,4-d]pyrimidin-6-yl)amino)benzenesulfonamide], the IC50 (CDK7/H [2]; [18]) is reported as 7 ± 0.3 µM, the IC50 (CDK9/T [3]; [19]) is reported as 4600 ± 200 nM and the GI50 [6] is reported as 1 to 22 µM. For the same compound, the IC50 (CDK5 [11]) was 5.9 ± 0.1 µM.
`Nc1nc(OCC2CCCCC2)c2cc[nH]c2n1` [Compound 93, 4-(Cyclohexylmethoxy)-7H-pyrrolo[2,3-d]pyrimidin-2-amine] showed an inhibition at 10 µM (CDK5 [8]) of 12%, an inhibition at 10 µM (Human CDK1/B [10]) of 11% and an inhibition at 10 µM (CDK9/T [9]) of 0%. For the same compound, the inhibition at 10 µM (CDK7/H [7]) was 5.1%, the inhibition at 10 µM (CDK4/D) was 5.6% and the inhibition at 10 µM (CDK2/A [5]; read-out: CDK2 Inhibition (%) at 10 uM) was 41 ± 10%. For the same compound, the inhibition at 100 µM (CDK2/A [5]; read-out: CDK2 Inhibition (%), value determined at 100 μM) was 41%.
For `NS(=O)(=O)c1ccc(Nc2nc(OCC3CCCCC3)c3cc[nH]c3n2)cc1` [Compound 98, 4-((4-(Cyclohexylmethoxy)-7H-pyrrolo[2,3-d]pyrimidin-2-yl)amino)benzenesulfonamide], the IC50 (Human CDK1/B [1]; [17]) was 2700 ± 200 nM, the IC50 (CDK7/H [2]; [18]) was 4.1 ± 0.2 µM and the IC50 (CDK9/T [3]; [19]) was 1000 ± 200 nM. It also gave a GI50 [6] of 1 to 22 µM, an IC50 (CDK5 [11]) of 4.4 ± 0.6 µM and an IC50 (CDK2/A [4]; [16]) of 26 ± 1 nM.
`c1ccc(Nc2cc(OCC3CCCCC3)n3ccnc3n2)cc1` [Compound 101, 5-Cyclohexylmethoxy-7-anilinoimidazo[1,2-a]pyrimidine] gave an inhibition at 10 µM (CDK2/A [5]; [20]) of 10%.
In the case of `NS(=O)(=O)c1ccc(Nc2cc(OCC3CCCCC3)n3ccnc3n2)cc1` [Compound 102, 5-Cyclohexylmethoxy-7-(4′-sulfamoylanilino)imidazo[1,2-a]pyrimidine], the inhibition at 10 µM (CDK2/A [5]; [20]) is reported as 36%.
